Test results taken from patent US11878013B2, “Isoquinoline derivative, preparing method thereof, and pharmaceutical composition for preventing or treating autophagy related diseases containing the same as an active ingredient” (Korea Research Institute of Chemical Technology, priority 2021, dated 2024).

Legend:
NO production = NO production in LPS-treated Raw 264.7 macrophages (Griess reagent); assay type: cell-based, mouse
Method: In order to confirm the effect of the compound of Example 1 of the present invention on NO production in Raw 264.7 mouse macrophages in which inflammatory response was induced by LPS, an experiment was performed as follows.
Raw 264.7 mouse macrophages were aliquoted in a 96-well plate at the density of 1×10^5 cells/well and stabilized in a 37° C., 5% CO2 incubator for 24 hours. The Raw 264.7 cells were treated with the compound of Example 1 by concentration. After 1 hour, the cells were treated with 1 ug/ml of LPS and cultured for 24 hours. For the measurement of NO production, 40 mg/ml of Griess reagent was prepared and it was mixed with the culture supernatant at the same ratio. The mixture was reacted at room temperature for 15 minutes, and absorbance was measured at 540 nm. Based on the results obtained therefrom, the cell viability and NO production rate were expressed as percentages in terms of LPS.

artificial skin tissue = experiment: Skin toxicity test on artificial skin (MTT); assay type: cell-based
Method: In order to evaluate the skin toxicity that may be induced upon skin contact of the compound of Example 1 of the present invention, the following experiment was performed using the artificial skin prepared with a structure similar to the skin of a living body.
Particularly, the experiment was performed according to OECD Guideline for the Testing of Chemicals No. 439, OECD (2010) and the method recommended by the manufacturer (Tegoscience).
First, the artificial skin cultured in agarose medium was transferred to a 12-well cell culture plate, to which culture medium was added, followed by culture in a humidified 37° C. 5% CO2 incubator for one day. The medium on the artificial skin culture surface was eliminated, and 90 μl of the compound of Example 1 of the present invention diluted with PBS was evenly applied to the skin surface, followed by incubation at room temperature for 15 minutes. The cell surface was washed twice with 10 ml of PBS, and a fresh culture medium was added, followed by incubation in a humidified 37° C. 5% CO2 incubator for 42 hours. In order to measure the viability of the skin, the artificial skin was transferred to a 12-well plate containing 2 ml of MTT solution (0.3 mg/ml), followed by culture for 3 hours. The stained artificial skin tissue was taken and transferred to a tube containing 500 μl of 0.04 N-isopropanol, and then incubated with shaking for 4 hours to decolorize. The solution was centrifuged at 13,000 rpm for 5 minutes, 100 μl of the supernatant was transferred to each well of a 96-well plate, and absorbance was measured at 570 nm.

[O-][S+](c1ccc(F)cc1)c1nccc2ccccc12 (stereo not shown) [Example 1, 1-((4-Fluorophenyl)Sulfinyl)Isoquinoline]
NO production (% of control) (NO production; 1 ug/ml LPS, 24 hours, Raw 264.7 cells, test concentration not given): 40 % of control | NO production (NO production; LPS-treated Raw 264.7, 0.1, 0.5, 1, 10 and 100 μM, effect increased with concentration (FIG. 3)): inhibited | survival rate of artificial skin (artificial skin tissue; 50 μM, the maximum concentration): slight decrease of the survival rate | survival rate of artificial skin (artificial skin tissue; up to 20 μM): no significant decrease of the survival rate
